Assay results from US11220672B2, “Human pluripotent stem cell-based system for generating endothelial cells” (Wisconsin Alumni Research Foundation, priority 2014, dated 2022).

Legend:
ERK = assay: Western blot of ERK activity (pERK) in endothelial cells in 2D culture; assay type: cell-based, human; conditions: ECs on TCP (2D culture)
From the text: (§1) (D) Top 10 (TPM>100, top 10 fold change) vasculature (TPM>100, Top 10 fold change) (AmiGO, GO:0001944) and cell cycle genes (AmiGO, GO:0007049) from RNA-seq. Full gene list of vasculature and cell cycle was generated by Amigo. […] Data was normalized to DMSO control (not shown). […] Data was normalized to NT control. ERK2i, siRNA of ERK2. NT, non-targeting.
(§2) We investigated a potential role for ERK signaling on cell cycle gene expression for ECs cultured on TCP surfaces since ERK regulates EC functions that include proliferation, blood vessel morphogenesis, and mechanotransduction^34,35,43-46. […] We further investigated the role for ERK activity in regulating the shift to a proliferative phenotype by comparing the top 10 enriched cycle genes from 2D culture and vascular development genes from 3D culture (Day 3) for ECs on TCP after pERK inhibition (FIGS. 3b-d).

endothelial cells (ECs) = assay type: cell-based; conditions: ECs on TCP (2D culture)
From the text: as §1

[1] = tested on: vasculature and cell cycle genes; assay: RT-qPCR of vasculature and cell cycle gene expression in ECs on TCP; assay type: cell-based, human; conditions: normalized to control
From the text: as §1, §2

N#CC(=C(/N)Sc1ccccc1N)/C(C#N)=C(\N)Sc1ccccc1N [U0126]
ERK activity (Western blot) (ERK): decreased ERK activity
EC proliferation (endothelial cells (ECs)): decreased EC proliferation
cell cycle gene expression (top 10 genes, RT-qPCR) [1]: 10 of 10 genes downregulated
vasculature (vascular development) gene expression (top 10 genes, RT-qPCR) [1]: 8 of 10 genes upregulated
